Activity calls are given as the source filed them.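 How the source made its calls: active means compound cutting the HIV-1 infection reporter signal by at least half at some tested dose; inactive means the rest.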
System: MAGI-CCR5 cells, HIV-1 Ba-L, beta-gal luminescence, 48 h
Test: antiviral activity against R5 HIV-1 in MAGI cells – MAGI-CCR5 cells, HIV-1 Ba-L, 5% and 10% serum, set 2, dose response (AID 2788)
[1] = measured here: IC50 in 10% serum

SMILES | IC50 | IC50 [1]
CC1(C)CC(=O)C2=C(C1)c1c(ccc3ccccc13)NC2c1cc([N+](=O)[O-])cc([N+](=O)[O-])c1O (stereo not drawn) | 15.4 µM | 35.6 µM
COc1ccccc1NS(=O)(=O)c1cccc(-n2c(O)c(C=Nc3ccccc3C(=O)O)c3ccccc3c2=O)c1 | 49 µM | 54.9 µM
Cc1ccc(-n2c(O)c(C=Nc3ccccc3-c3n[nH]c(=S)[nH]c3=O)c3ccccc3c2=O)c(C)c1 | 18 µM | 23 µM
O=c1c(=Cc2cc([N+](=O)[O-])cc([N+](=O)[O-])c2O)sc2nc3ccccc3n12 | 52.1 µM | > 100 µM
Cc1ccc(S(=O)(=O)Oc2ccc(/C=C3/C(=N)N4C(=NC3=O)SN=C4S(C)(=O)=O)cc2)cc1 | 78.5 µM | > 100 µM
Cc1cc(C)cc(-n2cccc2/C=C2/C(=N)N3C(=NC2=O)SN=C3S(C)(=O)=O)c1 | 45.8 µM | 55.6 µM
CCS(=O)(=O)C1=NSC2=NC(=O)/C(=C\c3ccc(OS(=O)(=O)c4ccccc4)cc3)C(=N)N21 | > 100 µM (inactive) | > 100 µM
CS(=O)(=O)C1=NSC2=NC(=O)/C(=C\c3ccc(OS(=O)(=O)c4ccccc4)cc3)C(=N)N21 | > 100 µM (inactive) | > 100 µM
COc1ccc(OC)c(N2C(=O)/C(=C/c3ccco3)C(=O)NC2=S)c1 | 58.5 µM | 52.8 µM
COc1cc(C=NNc2ccc(Cl)c(C(=O)O)c2)ccc1OC(=O)c1ccc(F)cc1 | 96.5 µM | > 100 µM
COc1cc(C=NNc2ccc(Cl)c(C(=O)O)c2)ccc1OC(=O)c1ccccc1F | > 100 µM (inactive) | > 100 µM
CS(=O)(=O)C1=NSC2=NC(=O)/C(=C\c3cccn3-c3ccc(Cl)cc3)C(=N)N21 | 63.8 µM | > 100 µM
Cc1ccc(-n2cccc2/C=C2/C(=N)N3C(=NC2=O)SN=C3S(C)(=O)=O)cc1Cl | 47.3 µM | 60.8 µM
CC(C)S(=O)(=O)C1=NSC2=NC(=O)/C(=C\c3ccc(-c4cccc(C(=O)O)c4)o3)C(=N)N21 | 45.6 µM | 50.5 µM
O=C(O)c1ccccc1C(=O)N(Cc1cccc(Oc2ccc(Cl)cc2)c1)[C@H]1CCCc2ccccc21 | 16.2 µM | 38.2 µM
CC(C)S(=O)(=O)C1=NSC2=NC(=O)/C(=C\c3ccc(-c4ccccc4)o3)C(=N)N21 | 21.9 µM | 44 µM
COc1ccc(C(=O)Oc2ccc(C=NNc3ccc(Cl)c(C(=O)O)c3)cc2OC)cc1 | 56.4 µM | 81.4 µM
O=C(O)c1cc(NN=Cc2ccc(-c3ccccc3)cc2)ccc1Cl | 94 µM | > 100 µM
O=C1NC(=S)N(c2ccc(F)cc2)C(=O)/C1=C/c1ccco1 | 52.9 µM | 48.7 µM

Source: PubChem BioAssay AID2788 (Southern Research Specialized Biocontainment Screening …, 2010)
